ChEMBL document CHEMBL5620399, “Discovery of orally active sulfonylphenyl thieno[3,2-d]pyrimidine derivatives as GPR119 agonists” (Eur J Med Chem, 2023)

Columns and labels:
[1] = target: T1, Glucose-dependent insulinotropic receptor (Homo sapiens, UniProt Q8TDV5); assay: Agonist activity at human GPR119 expressed in CHO-K1 cells preincubated for 5 hrs followed by substrate addition measured after 2 hrs by fluorescence based assay; format: functional, cell-based
T1 sequence (Q8TDV5 whole entry): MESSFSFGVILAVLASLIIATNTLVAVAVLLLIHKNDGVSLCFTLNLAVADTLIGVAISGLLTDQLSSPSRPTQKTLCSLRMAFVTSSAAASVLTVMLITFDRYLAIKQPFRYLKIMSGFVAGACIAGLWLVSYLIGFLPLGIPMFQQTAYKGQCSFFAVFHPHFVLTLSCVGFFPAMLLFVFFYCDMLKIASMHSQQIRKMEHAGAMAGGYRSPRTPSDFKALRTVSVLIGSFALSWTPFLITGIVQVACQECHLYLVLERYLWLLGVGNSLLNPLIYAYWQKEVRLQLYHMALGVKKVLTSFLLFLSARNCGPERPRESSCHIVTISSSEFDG

[2] = Agonist activity at GPR119 in Golden hamster HIT-T15 cells assessed as increase in intracellular cAMP level incubated for 1 hr by fluorescence based assay; format: cell-based; details: Mesocricetus auratus, HIT-T15, 1 h
[3] = target: Cytochrome P450 2C19 (Homo sapiens, UniProt P33261); assay: Inhibition of CYP2C19 (unknown origin) using 7-ethoxy-3-cyanocoumarin as substrate preincubated for 10 mins followed by addition of NADPH generating system measured after 30 mins by fluorescence based assay; format: ADME
Chain of Cytochrome P450 2C19 (P33261 whole entry): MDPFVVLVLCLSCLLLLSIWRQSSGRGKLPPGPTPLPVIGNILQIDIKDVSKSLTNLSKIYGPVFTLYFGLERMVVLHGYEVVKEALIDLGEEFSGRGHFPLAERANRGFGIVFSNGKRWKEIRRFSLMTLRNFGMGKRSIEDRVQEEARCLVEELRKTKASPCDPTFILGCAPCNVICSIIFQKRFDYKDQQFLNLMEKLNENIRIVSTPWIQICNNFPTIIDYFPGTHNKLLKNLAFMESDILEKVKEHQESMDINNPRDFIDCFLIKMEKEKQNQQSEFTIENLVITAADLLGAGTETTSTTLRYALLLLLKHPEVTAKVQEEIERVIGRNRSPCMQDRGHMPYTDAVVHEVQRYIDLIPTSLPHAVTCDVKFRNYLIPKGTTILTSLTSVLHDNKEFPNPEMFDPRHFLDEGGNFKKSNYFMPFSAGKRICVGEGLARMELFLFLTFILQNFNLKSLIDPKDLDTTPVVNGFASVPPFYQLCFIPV

[4] = target: T2, Cytochrome P450 1A2 (Homo sapiens, UniProt P05177); assay: Inhibition of CYP1A2 (unknown origin) using 7-ethoxy-3-cyanocoumarin as substrate preincubated for 10 mins followed by addition of NADPH generating system measured after 30 mins by fluorescence based assay; format: ADME
T2 sequence (P05177 whole entry): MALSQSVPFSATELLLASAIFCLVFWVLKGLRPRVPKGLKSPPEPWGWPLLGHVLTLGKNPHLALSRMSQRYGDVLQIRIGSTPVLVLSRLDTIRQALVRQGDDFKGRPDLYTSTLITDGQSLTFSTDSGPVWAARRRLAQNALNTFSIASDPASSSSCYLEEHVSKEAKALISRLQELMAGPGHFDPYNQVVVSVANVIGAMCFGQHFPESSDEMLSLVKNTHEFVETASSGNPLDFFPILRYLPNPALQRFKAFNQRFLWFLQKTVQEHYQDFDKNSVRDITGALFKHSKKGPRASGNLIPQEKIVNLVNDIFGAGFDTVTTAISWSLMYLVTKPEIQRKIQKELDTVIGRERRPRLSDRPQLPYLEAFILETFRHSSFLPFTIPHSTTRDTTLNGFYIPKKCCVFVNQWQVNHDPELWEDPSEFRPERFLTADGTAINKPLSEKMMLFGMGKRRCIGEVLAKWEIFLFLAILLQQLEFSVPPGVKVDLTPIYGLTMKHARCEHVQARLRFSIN

[5] = target: Cytochrome P450 3A4 (Homo sapiens, UniProt P08684); assay: Inhibition of CYP3A4 (unknown origin) using 7-benzyloxy-4-trifluoromethylcoumarin as substrate preincubated for 10 mins followed by addition of NADPH generating system measured after 30 mins by fluorescence based assay; format: ADME
Chain of Cytochrome P450 3A4 (P08684 whole entry): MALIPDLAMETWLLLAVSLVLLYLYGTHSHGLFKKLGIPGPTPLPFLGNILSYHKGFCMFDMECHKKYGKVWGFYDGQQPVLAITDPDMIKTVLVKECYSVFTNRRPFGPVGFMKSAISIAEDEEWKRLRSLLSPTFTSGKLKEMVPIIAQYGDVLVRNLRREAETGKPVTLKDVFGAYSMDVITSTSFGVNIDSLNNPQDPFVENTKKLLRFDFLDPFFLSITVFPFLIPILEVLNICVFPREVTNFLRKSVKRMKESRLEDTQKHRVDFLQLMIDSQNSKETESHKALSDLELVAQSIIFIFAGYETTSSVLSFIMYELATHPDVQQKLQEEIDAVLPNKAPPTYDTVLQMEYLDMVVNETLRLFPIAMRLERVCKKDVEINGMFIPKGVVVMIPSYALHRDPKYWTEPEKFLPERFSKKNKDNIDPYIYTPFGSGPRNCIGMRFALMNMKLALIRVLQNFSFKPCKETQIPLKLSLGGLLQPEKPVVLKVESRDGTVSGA

[6] = target: Cytochrome P450 2D6 (Homo sapiens, UniProt P10635); assay: Inhibition of CYP2D6 (unknown origin) using 3-[2-(N,N-diethyl-N-methylammonium)ethyl]-7-methoxy-4-methylcoumarin as substrate preincubated for 10 mins followed by addition of NADPH generating system measured after 30 mins by fluorescence based assay; format: ADME
Chain of Cytochrome P450 2D6 (P10635 whole entry): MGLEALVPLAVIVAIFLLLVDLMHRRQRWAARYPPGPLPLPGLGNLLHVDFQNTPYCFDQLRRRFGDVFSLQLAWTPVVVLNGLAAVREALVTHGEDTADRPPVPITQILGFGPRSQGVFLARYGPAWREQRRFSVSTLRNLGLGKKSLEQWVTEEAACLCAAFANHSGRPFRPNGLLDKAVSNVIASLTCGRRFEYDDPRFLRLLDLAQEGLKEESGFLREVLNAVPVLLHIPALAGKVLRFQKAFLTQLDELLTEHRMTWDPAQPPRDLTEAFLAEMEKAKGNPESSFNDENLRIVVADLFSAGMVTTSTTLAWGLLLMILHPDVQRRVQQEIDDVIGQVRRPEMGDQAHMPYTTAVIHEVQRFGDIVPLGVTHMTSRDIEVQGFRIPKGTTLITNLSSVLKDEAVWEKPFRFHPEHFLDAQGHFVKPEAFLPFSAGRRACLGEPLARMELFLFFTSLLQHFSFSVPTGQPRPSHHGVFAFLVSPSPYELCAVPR

[7] = Microsomal stability in mouse liver microsomes assessed as compound remaining at 5 uM measured after 60 mins in presence of NADPH by HPLC analysis; format: ADME, Microsome; details: read-out: Stability
[8] = Microsomal stability in human liver microsomes assessed as compound remaining at 5 uM measured after 60 mins in presence of NADPH by HPLC analysis; format: ADME, Microsome; details: read-out: Stability
[9] = Microsomal stability in dog liver microsomes assessed as compound remaining at 5 uM measured after 60 mins in presence of NADPH by HPLC analysis; format: ADME, Canis lupus familiaris, Microsome; details: read-out: Stability
[10] = target: Cytochrome P450 2C9 (Homo sapiens, UniProt P11712); assay: Inhibition of CYP2C9 (unknown origin) using 7-methoxy-4-trifluoromethylcoumarin as substrate preincubated for 10 mins followed by addition of NADPH generating system measured after 30 mins by fluorescence based assay; format: ADME
Chain of Cytochrome P450 2C9 (P11712 whole entry): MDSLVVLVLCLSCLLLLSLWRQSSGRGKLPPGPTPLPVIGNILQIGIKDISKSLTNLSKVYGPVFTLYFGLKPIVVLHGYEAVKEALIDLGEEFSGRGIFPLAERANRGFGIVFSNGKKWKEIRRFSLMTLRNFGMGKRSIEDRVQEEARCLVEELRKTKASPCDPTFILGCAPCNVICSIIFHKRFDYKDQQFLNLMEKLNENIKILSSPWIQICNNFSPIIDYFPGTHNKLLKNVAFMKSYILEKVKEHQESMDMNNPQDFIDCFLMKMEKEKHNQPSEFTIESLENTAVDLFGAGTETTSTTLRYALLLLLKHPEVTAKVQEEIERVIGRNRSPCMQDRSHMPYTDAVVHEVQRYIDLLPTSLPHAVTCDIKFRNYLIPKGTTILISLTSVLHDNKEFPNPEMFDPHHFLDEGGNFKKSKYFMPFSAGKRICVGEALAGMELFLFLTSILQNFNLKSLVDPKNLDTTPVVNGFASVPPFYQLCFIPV

[11] = system: Rattus norvegicus; assay: Anti-diabetic activity in Sprague-Dawley rat assessed as reduction in AUC (0 to 2 hrs) at 3 mg/kg, po followed by oral administration of glucose measured for 2 hrs by OGTT assay relative to control; format: functional; parameters: scale not given: the % may be the effect or the level left
[12] = system: Mus musculus; assay: Anti-diabetic activity in C57BL mouse assessed as reduction in AUC (0 to 2 hrs) at 3 mg/kg, po followed by oral administration of glucose measured for 2 hrs by OGTT assay relative to control; format: functional; parameters: scale not given: the % may be the effect or the level left
[13] = Tmax in ICR mouse at 10 mg/kg, po; format: ADME, organism-based; details: in vivo
[14] = Cmax in ICR mouse at 10 mg/kg, po; format: ADME, organism-based; details: in vivo
[15] = Half life in ICR mouse at 10 mg/kg, po; format: ADME, organism-based; details: in vivo
[16] = Tmax in Sprague-Dawley rat at 5 mg/kg, po; format: ADME, organism-based; details: in vivo
[17] = Clearance in ICR mouse at 1 mg/kg, iv; format: ADME, organism-based; details: in vivo
[18] = MRTlast in Sprague-Dawley rat at 5 mg/kg, po; format: ADME, organism-based; details: in vivo
[19] = Half life in ICR mouse at 1 mg/kg, iv; format: ADME, organism-based; details: in vivo
[20] = AUC (0 to 24 hrs) in ICR mouse at 10 mg/kg, po; format: ADME, organism-based; details: in vivo
[21] = MRTlast in ICR mouse at 1 mg/kg, iv; format: ADME, organism-based; details: in vivo
[22] = Oral bioavailability in Sprague-Dawley rat at 5 mg/kg; format: ADME, organism-based; details: in vivo
[23] = Oral bioavailability in ICR mouse at 10 mg/kg; format: ADME, organism-based; details: in vivo
[24] = AUC (0 to 24 hrs) in Sprague-Dawley rat at 5 mg/kg, po; format: ADME, organism-based; details: in vivo
[25] = Microsomal stability in rat liver microsomes assessed as compound remaining at 5 uM measured after 60 mins in presence of NADPH by HPLC analysis; format: ADME, Microsome; details: read-out: Stability
[26] = Volume of distribution in ICR mouse at 1 mg/kg, iv; format: ADME, organism-based; details: in vivo
[27] = AUC (0 to 24 hrs) in Sprague-Dawley rat at 1 mg/kg, iv; format: ADME, organism-based; details: in vivo
[28] = AUC (0 to 24 hrs) in ICR mouse at 1 mg/kg, iv; format: ADME, organism-based; details: in vivo
[29] = Volume of distribution in Sprague-Dawley rat at 1 mg/kg, iv; format: ADME, organism-based; details: in vivo
[30] = Half life in Sprague-Dawley rat at 1 mg/kg, iv; format: ADME, organism-based; details: in vivo
[31] = MRTlast in ICR mouse at 10 mg/kg, po; format: ADME, organism-based; details: in vivo
[32] = Cmax in Sprague-Dawley rat at 5 mg/kg, po; format: ADME, organism-based; details: in vivo
[33] = Clearance in Sprague-Dawley rat at 1 mg/kg, iv; format: ADME, organism-based; details: in vivo
[34] = Half life in Sprague-Dawley rat at 5 mg/kg, po; format: ADME, organism-based; details: in vivo
[35] = MRTlast in Sprague-Dawley rat at 1 mg/kg, iv; format: ADME, organism-based; details: in vivo

SMILES: CC(C)c1noc(N2CCC(Oc3ncnc4c(-c5ccc(S(C)(=O)=O)cc5)csc34)C2)n1 (configuration not stated)
- EC50 [1]: 0.754 µM

SMILES: CC(C)(C)OC(=O)N1CCC(Oc2ncnc3c(-c4ccc(S(C)(=O)=O)cc4F)csc23)CC1
- EC50 [1]: 0.0014 µM

SMILES: CCN(c1ncnc2c(-c3ccc(S(C)(=O)=O)cc3)csc12)C1CCN(c2ccc(C(F)(F)F)cn2)CC1
- EC50 [1]: > 0.1 µM

SMILES: CS(=O)(=O)c1ccc(-c2csc3c(N4CCCC4)ncnc23)cc1
- EC50 [1]: > 0.1 µM

SMILES: CS(=O)(=O)c1ccc(-c2csc3c(N4CCC(c5nc(C6CC6)no5)CC4)ncnc23)cc1
- EC50 [2]: 0.0168 µM
- EC50 [1]: 0.0239 µM

SMILES: CS(=O)(=O)c1ccc(-c2csc3c(N4CCC(c5nc(C6CCCC6)no5)CC4)ncnc23)c(F)c1
- EC50 [2]: 0.0863 µM
- EC50 [1]: 0.0019 µM

SMILES: CC(C)c1noc(C2CCN(c3ncnc4c(-c5ccc(S(C)(=O)=O)cc5)csc34)CC2)n1
- IC50 [3]: 3.68 µM
- IC50 [4]: > 50 µM
- IC50 [5]: 12 µM
- EC50 [2]: 0.0115 µM
- EC50 [1]: 0.0117 µM
- IC50 [6]: > 50 µM
- remaining at 1 h, 5 µM [7]: 21%
- remaining at 1 h, 5 µM [8]: 13%
- remaining at 1 h, 5 µM [9]: 6%
- IC50 [10]: < 0.62 µM

SMILES: CS(=O)(=O)c1ccc(-c2csc3c(OC4CCN(c5nc(C6CCCC6)no5)CC4)ncnc23)cc1
- EC50 [2]: > 1 µM
- EC50 [1]: 0.0056 µM

SMILES: CC(C)(C)c1noc(N2CCC(Oc3ncnc4c(-c5ccc(S(C)(=O)=O)cc5F)csc34)CC2)n1
- EC50 [1]: 0.0036 µM

SMILES: CCc1cnc(N2CCC(N(CC)c3ncnc4c(-c5ccc(S(C)(=O)=O)cc5)csc34)CC2)nc1
- EC50 [2]: 0.153 µM
- EC50 [1]: 0.015 µM

SMILES: CS(=O)(=O)c1ccc(-c2csc3c(OC4CCN(c5nc(C6CC6)no5)CC4)ncnc23)cc1
- EC50 [2]: 0.047 µM
- EC50 [1]: 0.0248 µM

SMILES: CS(=O)(=O)c1ccc(-c2csc3c(N4CCCCC4)ncnc23)cc1
- EC50 [1]: > 0.1 µM

SMILES: CN1CCC(Oc2ncnc3c(-c4ccc(S(C)(=O)=O)cc4F)csc23)CC1
- EC50 [1]: > 0.1 µM

SMILES: CS(=O)(=O)c1ccc(-c2csc3c(N4CCC(c5nc(C6CCCCC6)no5)CC4)ncnc23)cc1
- EC50 [2]: 0.0325 µM
- EC50 [1]: 0.0125 µM

SMILES: CS(=O)(=O)c1ccc(-c2csc3c(OC4CCNCC4)ncnc23)c(F)c1
- EC50 [1]: > 0.1 µM

SMILES: CCCc1noc(N2CCC(Oc3ncnc4c(-c5ccc(S(C)(=O)=O)cc5F)csc34)CC2)n1
- EC50 [1]: 0.0021 µM

SMILES: CCc1cnc(N2CCC(c3nc(COc4ccc(-n5cnnn5)cc4)cs3)CC2)nc1 [MBX-2982]
- EC50 [2]: 0.002 µM
- EC50 [1]: 0.0031 µM
- Activity [11]: 7.3%
- Activity [12]: 29%

SMILES: CC(C)c1noc(N2CCC(Oc3ncnc4c(-c5ccc(S(C)(=O)=O)cc5F)csc34)CC2)n1
- IC50 [3]: 5.55 µM
- Tmax [13]: 0.5 h
- Cmax [14]: 9130 ng/mL
- half-life [15]: 2.2 h
- Tmax [16]: 1 h
- clearance [17]: 5 mL/min/kg
- MRT last [18]: 3.2 h
- IC50 [4]: > 50 µM
- IC50 [5]: 3.79 µM
- half-life [19]: 3.4 h
- EC50 [2]: 0.0228 µM
- EC50 [1]: 0.0063 µM
- AUC(0-t) [20]: 32700 ng·h/mL
- IC50 [6]: > 50 µM
- MRT last [21]: 3 h
- remaining at 1 h, 5 µM [7]: 38%
- bioavailability [22]: 61.5%
- remaining at 1 h, 5 µM [8]: 35%
- bioavailability [23]: > 100%
- Activity [11]: 15%
- AUC(0-t) [24]: 5720 ng·h/mL
- remaining at 1 h, 5 µM [9]: 62%
- remaining at 1 h, 5 µM [25]: 48%
- Vd [26]: 1.2 L/kg
- Activity [12]: 37.4%
- IC50 [10]: > 50 µM
- AUC(0-t) [27]: 1860 ng·h/mL
- AUC(0-t) [28]: 2770 ng·h/mL
- Vd [29]: 1.2 L/kg
- half-life [30]: 2.8 h
- MRT last [31]: 3.8 h
- Cmax [32]: 1480 ng/mL
- clearance [33]: 5 mL/min/kg
- half-life [34]: 2.4 h
- MRT last [35]: 3.6 h

SMILES: CCN(c1ncnc2c(-c3ccc(S(C)(=O)=O)cc3)csc12)C1CCN(C(=O)OC(C)(C)C)CC1
- EC50 [1]: > 0.1 µM

SMILES: CC(C)(C)OC(=O)N1CCC(Nc2ncnc3c(-c4ccc(S(C)(=O)=O)cc4)csc23)CC1
- EC50 [1]: > 0.1 µM

SMILES: CCc1cnc(N2CCC(Oc3ncnc4c(-c5ccc(S(C)(=O)=O)cc5)csc34)C2)nc1 (configuration not stated)
- EC50 [1]: 0.0748 µM

SMILES: CS(=O)(=O)c1ccc(-c2csc3c(N4CCC(c5nc(C6CCCC6)no5)CC4)ncnc23)cc1
- EC50 [2]: 0.016 µM
- EC50 [1]: 0.0087 µM
- remaining at 1 h, 5 µM [7]: 23%
- remaining at 1 h, 5 µM [9]: 10%
- remaining at 1 h, 5 µM [25]: 9%

SMILES: CN(c1ncnc2c(-c3ccc(S(C)(=O)=O)cc3)csc12)C1CCN(C(=O)OC(C)(C)C)CC1
- EC50 [2]: 0.0191 µM
- EC50 [1]: 0.0338 µM

SMILES: CCc1cnc(N2CCC(N(C)c3ncnc4c(-c5ccc(S(C)(=O)=O)cc5)csc34)CC2)nc1
- EC50 [2]: 0.0359 µM
- EC50 [1]: 0.0074 µM
